The text below walks through data of ChEMBL document CHEMBL5120872, “Synthesis and biological evaluation of novel 2-azido muramyl dipeptide as NOD2 agonistic adjuvants” (Bioorg Med Chem, 2022).

The source made the active and inactive calls. The rule behind the calls is not given here.

A short description of data set [1]: Induction of dengue virus antigen-induced immunogenicity in BALB/c mouse assessed as fold change in IgG production treated at 10 ug and booster dosed on 14th day measured after 28 days by ELISA method. Type of data set: functional. The note with it: dose 10 µg; time 28 day.
Data set [2] has as its system Mus musculus. The data set can be described thus: Induction of dengue virus antigen-induced immunogenicity in BALB/c mouse assessed as increase in IL-2 level booster dosed on 14th day and measured on day 28 after 48 hrs restimulation with antigen by ELISA method. The data set is classed as functional, organism-based. The following applies: dose 10-30 µg, time 28.0 day, DDE = dose-dependent effect. On the technique in general: In an ELISA, binding on a coated surface is turned into a signal by an enzyme label.

Data set [3] concerns Splenocyte. The data set can be described thus: Induction of dengue virus antigen-induced immunogenicity in BALB/c mouse assessed as increase in CD8+ production in splenocyte treated at 20 ug and booster dosed on 14th day measured after 28 days by ELISA method. The data set is classed as functional, organism-based. The following applies: dose 20.0 µg, time 28.0 day.
The test system of data set [4] is Mus musculus. The data set can be described thus: Induction of dengue virus antigen-induced immunogenicity in BALB/c mouse assessed as increase in IL-4 level booster dosed on 14th day and measured on day 28 after 48 hrs restimulation with antigen by ELISA method. The note with it: dose 10-30 µg, time 28.0 day, DDE = dose-dependent effect. Type of data set: functional, organism-based.

For data set [5], the target named is Nucleotide-binding oligomerization domain-containing protein 2 (Homo sapiens) (UniProt Q9HC29). Put plainly: Agonist activity at NOD2 in HEK-Blue hNOD2 cells assessed as increase in SEAP activity at 20 ug incubated for 24 hrs by Quanti-blue assay. The data set is classed as cell-based. The following applies: filed as agonist, dose 20.0 µg.
The subject of data set [6] is Mus musculus. The data set can be described thus: Induction of dengue virus antigen-induced immunogenicity in BALB/c mouse assessed as decrease in IFNgamma level booster dosed on 14th day and measured on day 28 after 48 hrs restimulation with antigen by ELISA method. The following applies: dose 10-30 µM, time 28.0 day, DDE = dose-dependent effect. Type of data set: functional, organism-based.

The test system of data set [7] is Mus musculus. Put plainly: Induction of dengue virus antigen-induced immunogenicity in BALB/c mouse assessed as […] associated IgG2a production in sera treated at 10 to 30 ug and booster dosed on 14th day measured after 28 days by ELISA method. The following applies: dose 10-30 µg, time 28.0 day. The data set is classed as functional, organism-based.
Data set [8] deals with Splenocyte. Put plainly: Induction of LPS-stimulated mouse splenocyte proliferation assessed as increase in B cell population incubated for 48 hrs by MTT assay. The data set is classed as functional, cell-based. The following applies: dose 10-20 µg, DDE = dose-dependent effect.
For data set [9], the system named is Splenocyte. The data set can be described thus: Induction of Con A-stimulated mouse splenocyte proliferation assessed as increase in T cell population incubated for 48 hrs by MTT assay. The following applies: dose 10-20 µg, DDE = dose-dependent effect. The data set is classed as functional, cell-based. For orientation: Tetrazolium assays rely on reduction of a dye to a coloured formazan, in cell work by metabolically active cells.

The test system of data set [10] is Peritoneal macrophage. Put plainly: Cytotoxicity against BALB/c mouse peritoneal macrophages assessed as reduction in cell viability at 20 ug incubated for 48 hrs by MTT assay. The data set is classed as toxicity, cell-based. The following applies: dose 20 µg.
For data set [11], the system named is Peritoneal macrophage. Put plainly: Immunostimulatory activity in BALB/c mouse peritoneal macrophages assessed as increase in TNF-aplha production at 20 ug incubated for 48 hrs by sandwich ELISA method. The note with it: dose 20.0 µg. Type of data set: functional, cell-based.
Data set [12] has as its system Mus musculus. Put plainly: Induction of dengue virus antigen-induced immunogenicity in BALB/c mouse assessed as increase in IL-1beta level treated at 10 to 20 ug and booster dosed on 14th day and measured on day 28 after 48 hrs restimulation with antigen by ELISA method. Type of data set: functional, organism-based. The following applies: dose 10-20 µg, time 28.0 day.

Data set [13] concerns Splenocyte. The data set can be described thus: Induction of dengue virus antigen-induced immunogenicity in BALB/c mouse assessed as increase in CD4+ production in Splenocyte treated at 1 to 30 ug and booster dosed on 14th day measured after 28 days by ELISA method. The following applies: dose 1-30 µg, time 28.0 day. Type of data set: functional, organism-based.
Data set [14] can be described thus: Induction of dengue virus antigen-induced immunogenicity in BALB/c mouse assessed as fold change in IgG production treated at 20 ug and booster dosed on 14th day measured after 28 days by ELISA method. The note with it: dose 20 µg; time 28 day. The data set is classed as functional.
Data set [15] has as its system Splenocyte. The data set can be described thus: Induction of dengue virus antigen-induced immunogenicity in BALB/c mouse assessed as increase in CD4+ production in Splenocyte treated at 20 ug and booster dosed on 14th day measured after 28 days by ELISA method. The data set is classed as functional, organism-based. The note with it: dose 20.0 µg, time 28.0 day.
The subject of data set [16] is Splenocyte. Put plainly: Induction of dengue virus antigen-induced immunogenicity in BALB/c mouse assessed as increase in CD8+ production in Splenocyte treated at 1 to 30 ug and booster dosed on 14 th day measured after 28 days by ELISA method. The following applies: dose 1-30 µg, time 28.0 day. Type of data set: functional, organism-based.

Sequence of Nucleotide-binding oligomerization domain-containing protein 2 (Homo sapiens) (Q9HC29 whole entry, the tested form may be a part): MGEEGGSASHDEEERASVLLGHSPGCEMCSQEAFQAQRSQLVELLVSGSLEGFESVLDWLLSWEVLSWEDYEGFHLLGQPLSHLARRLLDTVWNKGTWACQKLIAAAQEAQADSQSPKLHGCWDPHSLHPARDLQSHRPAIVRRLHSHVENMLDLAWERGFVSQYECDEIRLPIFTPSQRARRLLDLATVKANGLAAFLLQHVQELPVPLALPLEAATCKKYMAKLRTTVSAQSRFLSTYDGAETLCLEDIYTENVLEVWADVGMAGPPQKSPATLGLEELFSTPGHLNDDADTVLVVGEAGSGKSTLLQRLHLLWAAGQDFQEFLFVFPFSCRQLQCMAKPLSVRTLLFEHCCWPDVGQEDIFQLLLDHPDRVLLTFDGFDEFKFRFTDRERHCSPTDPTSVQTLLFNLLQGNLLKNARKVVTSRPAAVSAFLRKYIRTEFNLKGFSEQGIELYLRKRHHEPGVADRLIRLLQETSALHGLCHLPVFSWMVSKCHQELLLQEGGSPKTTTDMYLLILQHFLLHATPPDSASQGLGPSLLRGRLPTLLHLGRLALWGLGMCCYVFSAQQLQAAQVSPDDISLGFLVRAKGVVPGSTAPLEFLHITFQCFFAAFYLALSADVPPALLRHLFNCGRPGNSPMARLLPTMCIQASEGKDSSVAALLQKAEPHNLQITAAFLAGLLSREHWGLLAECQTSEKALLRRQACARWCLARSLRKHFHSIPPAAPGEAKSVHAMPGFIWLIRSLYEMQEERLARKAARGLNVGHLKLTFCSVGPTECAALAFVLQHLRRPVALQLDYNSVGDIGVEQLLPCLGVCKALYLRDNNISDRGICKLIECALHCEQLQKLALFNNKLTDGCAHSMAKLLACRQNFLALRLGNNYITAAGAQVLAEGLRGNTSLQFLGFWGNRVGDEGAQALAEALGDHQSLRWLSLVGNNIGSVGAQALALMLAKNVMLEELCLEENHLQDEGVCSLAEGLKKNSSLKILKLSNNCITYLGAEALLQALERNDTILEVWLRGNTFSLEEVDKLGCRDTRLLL

In the case of `C[C@H](NC(=O)[C@@H](C)O[C@H]1[C@H](O)[C@@H](CO)O[C@H](OCc2ccccc2)[C@@H]1N=[N+]=[N-])C(=O)N[C@H](CCC(=O)OCc1ccccc1)C(N)=O`, the “fold change (FC)” value worked out at 8 in data set [1] and 10 in [14]. Moreover, the Activity result is “Dde” in the data set with Mus musculus [2]; “Dde” in the data set on Mus musculus [4]; “Dde” in the data set on Mus musculus [6]; “Dde” in the data set with Splenocyte [8]; “Dde” with Splenocyte [9]; “Non-Toxic” with Peritoneal macrophage [10]. Further, the result (in the data set on Splenocyte [3]; in [5]; in the data set on Mus musculus [7]; with Peritoneal macrophage [11]; with Mus musculus [12]; with Splenocyte [13]) was Active. Moreover, the outcome with Splenocyte [15] and in the data set on Splenocyte [16] was Active.
For `C[C@H](NC(=O)[C@@H](C)O[C@H]1[C@H](O)[C@@H](CO)O[C@H](OCc2ccccc2)[C@@H]1N=[N+]=[N-])C(=O)N[C@H](CCC(=O)O)C(N)=O`, the outcome (in data set [5]; in the data set on Peritoneal macrophage [11]) was Active. For the same molecule, the Activity result in the data set with Peritoneal macrophage [10] is “Non-Toxic”.
For the molecule `CCCCCCCCCCCCCCOC(=O)CC[C@@H](NC(=O)[C@H](C)NC(=O)[C@@H](C)O[C@H]1[C@H](O)[C@@H](CO)O[C@H](OCc2ccccc2)[C@@H]1N=[N+]=[N-])C(N)=O`, the result (in data set [5]; in the data set on Peritoneal macrophage [11]) was Active. Moreover, the Activity result in the data set with Peritoneal macrophage [10] is on record as “Non-Toxic”.
Take `CC(=O)N[C@H]1C(O)O[C@H](CO)[C@@H](O)[C@@H]1O[C@H](C)C(=O)N[C@@H](C)C(=O)N[C@H](CCC(=O)O)C(N)=O` (stereo partly drawn) [MURAMYL DIPEPTIDE]: the “fold change (FC)” value in data set [1] and in data set [14] was 5 throughout. In addition, the result (in [5]; with Peritoneal macrophage [11]) was Active. Moreover, the Activity entry in the data set with Peritoneal macrophage [10] is reported as “Non-Toxic”.
For the molecule `CCCCCCCCOC(=O)CC[C@@H](NC(=O)[C@H](C)NC(=O)[C@@H](C)O[C@H]1[C@H](O)[C@@H](CO)O[C@H](OCc2ccccc2)[C@@H]1N=[N+]=[N-])C(N)=O`, the result (in data set [5]; in the data set on Peritoneal macrophage [11]) was Active. In the data set on Peritoneal macrophage [10], the Activity result was “Non-Toxic”.
For the molecule `C[C@H](NC(=O)[C@@H](C)O[C@@H]1[C@@H](N=[N+]=[N-])[C@@H](OCc2ccccc2)O[C@@H]2CO[C@@H](c3ccccc3)O[C@@H]12)C(=O)N[C@H](CCC(=O)OCc1ccccc1)C(N)=O`, the outcome (in data set [5]; in the data set on Peritoneal macrophage [11]) was Active. Besides, the Activity entry with Peritoneal macrophage [10] is reported as “Non-Toxic”.
